Key:
[1] = system: CYP3A; settings: cited from earlier work
[2] = system: CD5 CAR T-cells; experiment: Expansion of CD5 CAR T-cells in the presence of kinase inhibitors; assay type: cell-based, human; settings: for frequencies of minimally differentiated, naïve-like T-cells (differentiation of CD5 CAR T-cells): inhibitor added on day of viral transduction, replenished every 2-3 days, vs control CD5 CAR T-cells expanded in the absence of inhibitors, FIG. 1A
Source text: Pazopanib and gefitinib had less impact on the differentiation of CD5 CAR T-cells. […] No such effect was observed upon expansion of control non-transduced T-cells in the presence of the same inhibitors, indicating the effect is CAR-specific.

SMILES | metabolism in the liver by the CYP3A [1] | frequencies of minimally differentiated, naïve-like T-cells (differentiation of CD5 CAR T-cells) [2] | CD5 CAR T-cell expansion ([2]; in presence of inhibitor, compared with non-transduced control T-cells, FIG. 1B)
Cc1nc(Nc2ncc(C(=O)Nc3c(C)cccc3Cl)s2)cc(N2CCN(CCO)CC2)n1 [dasatinib] | extensive metabolism |  | 
COc1cc2ncnc(Nc3ccc(F)c(Cl)c3)c2cc1OCCCN1CCOCC1 [gefitinib] |  | less impact | 
CC(C)(C)n1nc(-c2ccc(Cl)cc2)c2c(N)ncnc21 [pp2] |  | higher frequencies | promoted robust CD5 CAR T-cell expansion

From US20240382521A1, “METHODS OF ENGINEERING IMMUNE CELLS HAVING REDUCED FRATRICIDAL ACTIVITY” (Baylor College of Medicine, priority 2021, published 2024)
